Measured values: the CheMixHub viscosity set
Where “and” joins values, the source holds several entries; their conditions need not be identical. Identical values can stand only once.

Assay: xn = mol fraction of the nth substance listed

O=C(Cc1ccccc1)c1ccccc1 + CCCCCOC(C)=O
298.15 K, 101 kPa
Settings | viscosity [mPa·s]
x1 = 0.0268 | 0.8294
x1 = 0.0344 | 0.849

OCCCCO + CN(C)C=O
308.15 K, 101 kPa
Settings | viscosity [mPa·s]
x1 = 0.0565 | 0.762
x1 = 0.101 | 0.904
x1 = 0.1892 | 1.222
x1 = 0.2806 | 1.761
x1 = 0.3915 | 2.578
x1 = 0.4722 | 3.596
x1 = 0.5803 | 6.998
x1 = 0.6682 | 10.85
x1 = 0.7755 | 17.92
x1 = 0.8845 | 28.4
x1 = 0.9487 | 37.31

CCCCCC[N+]1(C)CCOCC1.[Br-] + OCCOCCOCCO
100 kPa, x1 = 0.2005
Settings | viscosity [mPa·s]
293.15 K | 111.2
298.15 K | 83.7
303.15 K | 64.32
308.15 K | 50.24
313.15 K | 40.12
318.15 K | 32.53
323.15 K | 26.79

O[C@H]1[C@H](O)[C@@H](O)[C@H](O)[C@@H](O)[C@H]1O + O
viscosity
Settings | x1 = 0.0018 | x1 = 0.002 | x1 = 0.00359 | x1 = 0.004 | x1 = 0.005 | x1 = 0.00538 | x1 = 0.00715 | x1 = 0.00893
293.15 K, 101 kPa | 1.051 mPa·s | – | 1.102 mPa·s | – | – | 1.154 mPa·s | 1.23 mPa·s | 1.281 mPa·s
293.15 K, 101.3 kPa | – | 1.035 mPa·s | – | 1.086 mPa·s | 1.138 mPa·s | – | – | –
298.15 K, 101.3 kPa | – | 0.945 mPa·s | – | 0.986 mPa·s | 1.006 mPa·s | – | – | –
303.15 K, 101 kPa | 0.836 mPa·s | – | 0.875 mPa·s | – | – | 0.911 mPa·s | 0.97 mPa·s | 1.001 mPa·s and 1.011 mPa·s
303.15 K, 101.3 kPa | – | 0.821 mPa·s | – | 0.861 mPa·s | 0.899 mPa·s | – | – | –
313.15 K, 101 kPa | 0.685 mPa·s | – | 0.728 mPa·s | – | – | 0.742 mPa·s | 0.789 mPa·s | 0.82 mPa·s
323.15 K, 101 kPa | 0.577 mPa·s | – | 0.601 mPa·s | – | – | 0.618 mPa·s | 0.658 mPa·s | 0.684 mPa·s

OCCCCO + CN1CCCC1=O
308.15 K, 101 kPa
Settings | viscosity [mPa·s]
x1 = 0.0277 | 1.784
x1 = 0.0556 | 1.943
x1 = 0.1011 | 2.235
x1 = 0.1982 | 3.025
x1 = 0.2982 | 4.088
x1 = 0.4038 | 5.57
x1 = 0.4943 | 7.06
x1 = 0.6011 | 11.08
x1 = 0.7044 | 16.24
x1 = 0.7935 | 21.61
x1 = 0.8996 | 33.43
x1 = 0.946 | 39.29
x1 = 0.965 | 41.43

O=C1CCCN1 + OCCO
101.33 kPa
Settings | viscosity [mPa·s]
298.15 K, x1 = 0.04482 | 16.51
298.15 K, x1 = 0.1032 | 16.1
298.15 K, x1 = 0.2107 | 15.53
298.15 K, x1 = 0.3059 | 15.19
298.15 K, x1 = 0.3998 | 14.98
298.15 K, x1 = 0.4988 | 14.85
298.15 K, x1 = 0.6042 | 14.73
298.15 K, x1 = 0.6866 | 14.62
298.15 K, x1 = 0.7865 | 14.39
298.15 K, x1 = 0.9015 | 13.95
298.15 K, x1 = 0.9371 | 13.76
308.15 K, x1 = 0.05148 | 11.22
308.15 K, x1 = 0.2079 | 10.64
308.15 K, x1 = 0.3048 | 10.4
308.15 K, x1 = 0.3932 | 10.24
308.15 K, x1 = 0.4992 | 10.12
308.15 K, x1 = 0.9078 | 9.505
308.15 K, x1 = 0.952 | 9.341
318.15 K, x1 = 0.04423 | 7.91
318.15 K, x1 = 0.1016 | 7.746
318.15 K, x1 = 0.2104 | 7.505
318.15 K, x1 = 0.318 | 7.342
318.15 K, x1 = 0.3931 | 7.265
318.15 K, x1 = 0.4945 | 7.195
318.15 K, x1 = 0.592 | 7.15
318.15 K, x1 = 0.7035 | 7.089
318.15 K, x1 = 0.7949 | 7.002
318.15 K, x1 = 0.8888 | 6.855
318.15 K, x1 = 0.9417 | 6.74

[Cl-].[Cl-].[Cl-].[Cl-].[Sn+4] + c1ccccc1
viscosity, 101 kPa
Settings | 293.15 K | 313.15 K
x2 = 0.5 | – | 0.5435 mPa·s
x2 = 0.7 | 0.6136 mPa·s | 0.485 mPa·s and 0.4846 mPa·s

O=S=O + CC(C)=O
298.15 K, 101 kPa
Settings | viscosity [mPa·s]
x1 = 0.04866 | 0.3122
x1 = 0.1662 | 0.3313
x1 = 0.2057 | 0.3365
x1 = 0.2466 | 0.3415
x1 = 0.2858 | 0.343
x1 = 0.4007 | 0.3471

Cc1cc(C)cc(C)c1 + CO
293.15 K, 101 kPa
Settings | viscosity [mPa·s]
x2 = 0.2 | 0.696
x2 = 0.4 | 0.699
x2 = 0.5 | 0.715
x2 = 0.6 | 0.721
x2 = 0.8 | 0.683

Cc1cc(C)cc(C)c1 + CCCCCCCCCCO
viscosity [mPa·s], 101 kPa
Settings | 298.15 K | 308.15 K
x1 = 0.0752 | 9.427 | 6.401
x1 = 0.1354 | 7.818 | 5.334
x1 = 0.2083 | 6.204 | 4.256
x1 = 0.265 | 5.179 | 3.572
x1 = 0.3292 | 4.194 | 2.936
x1 = 0.3894 | 3.456 | 2.445
x1 = 0.4633 | 2.728 | 1.942
x1 = 0.5303 | 2.202 | 1.595
x1 = 0.6033 | 1.754 | 1.279
x1 = 0.6643 | 1.458 | 1.084
x1 = 0.7341 | 1.195 | 0.901
x1 = 0.7998 | 1.002 | 0.768
x1 = 0.8724 | 0.838 | 0.669
x1 = 0.9442 | 0.728 | 0.606

CCCCCC[N+]1(C)CCOCC1.[Br-] + O=S1(=O)CCCC1
100 kPa, x1 = 0.0998
Settings | viscosity [mPa·s]
293.15 K | 42.16
298.15 K | 34.36
303.15 K | 28.35
308.15 K | 23.7
313.15 K | 20.06
318.15 K | 17.1
323.15 K | 14.72

Cc1ncc(CO)c(CO)c1O.Cl + O
101 kPa
Settings | viscosity
293.15 K, x1 = 0.001798 | 1.047 mPa·s
293.15 K, x1 = 0.0018 | 1.047 mPa·s
298.15 K, x1 = 0.00081 | 0.9087 mPa·s
298.15 K, x1 = 0.000909 | 0.918 mPa·s
298.15 K, x1 = 0.001809 | 0.95 mPa·s
298.15 K, x1 = 0.002028 | 0.9328 mPa·s
298.15 K, x1 = 0.002489 | 0.9415 mPa·s
298.15 K, x1 = 0.002657 | 0.96 mPa·s
298.15 K, x1 = 0.003638 | 0.99 mPa·s
298.15 K, x1 = 0.003926 | 0.9708 mPa·s
298.15 K, x1 = 0.004487 | 1.007 mPa·s
298.15 K, x1 = 0.004756 | 0.9841 mPa·s
298.15 K, x1 = 0.005406 | 1.027 mPa·s
298.15 K, x1 = 0.006266 | 1.04 mPa·s
298.15 K, x1 = 0.006666 | 1.03 mPa·s
298.15 K, x1 = 0.007307 | 1.06 mPa·s
298.15 K, x1 = 0.00813 | 1.073 mPa·s
298.15 K, x1 = 0.008945 | 1.084 mPa·s
298.15 K, x1 = 0.009813 | 1.108 mPa·s
303.15 K, x1 = 0.0018 | 0.832 mPa·s
303.15 K, x1 = 0.00359 | 0.8603 mPa·s and 0.8604 mPa·s
308.15 K, x1 = 0.002028 | 0.7519 mPa·s
308.15 K, x1 = 0.002489 | 0.7601 mPa·s
308.15 K, x1 = 0.003926 | 0.7829 mPa·s
308.15 K, x1 = 0.004756 | 0.7924 mPa·s
308.15 K, x1 = 0.006666 | 0.828 mPa·s
313.15 K, x1 = 0.001798 | 0.6798 mPa·s and 0.6802 mPa·s and 0.68 mPa·s
313.15 K, x1 = 0.00359 | 0.7025 mPa·s
313.15 K, x1 = 0.007154 | 0.7543 mPa·s and 0.7545 mPa·s
318.15 K, x1 = 0.002028 | 0.6236 mPa·s
318.15 K, x1 = 0.002489 | 0.6303 mPa·s
318.15 K, x1 = 0.003926 | 0.649 mPa·s
318.15 K, x1 = 0.004756 | 0.6605 mPa·s
318.15 K, x1 = 0.006666 | 0.6863 mPa·s
323.15 K, x1 = 0.001798 | 0.5675 mPa·s
323.15 K, x1 = 0.0018 | 0.5673 mPa·s
323.15 K, x1 = 0.005375 | 0.6071 mPa·s and 0.6075 mPa·s and 0.6074 mPa·s
